Measurements published in paper PMC11555501 (ACS Pharmacology & Translational Science, 2024).
Non-standard residues stand in square brackets, D forms with d. Residues, ends and D or L forms follow the SMILES beside them. *: point of attachment. X1 = CN(C)c1ccc2c(c1)Oc1cc(N(C)C)ccc1C21OC(=O)c2ccc(C(=O)*)cc21; Bip = N[C@@H](Cc1ccc(-c2ccccc2)cc1)C(=O)O; Lauroyl = CCCCCCCCCCCC(=O)*

How the values were obtained:
[1] = Stability of Tam-labeled peptides in HEK-293 cell culture supernatant; assay type: in vitro ADME; conditions: for half-life at 10 μM: DMEM with 15% FBS on HEK-293 cells
Protocol: The cells were grown under standard conditions. […] The medium was replaced with the peptide solutions.

[2] = Stability of Tam-labeled peptides in human blood plasma (RP-HPLC fluorescence, MALDI-ToF-MS); conditions: for half-life at 10 μM / remaining at 72 h, 10 μM: human
Protocol: (§1) Peptide solutions were diluted as described above and incubated at 37 °C. Samples were precipitated in 2× ACN/EtOH (1:1, v/v) at −20 °C overnight and filtered through Costar Spin-X tubes. The solutions of Tam-labeled peptides diluted with H2O (1:1, v/v) were analyzed by RP-HPLC using a linear gradient of eluent B (0.1% TFA in H2O) in eluent A (0.08% TFA in ACN) over 40 min at 40 °C on a VariTide RPC column (250 mm × 4.6 mm, 200 Å, 6 μm, flow rate 1 mL/min, Agilent Technologies). The relative amount of intact peptide was determined by fluorescence intensity (extinction 525 nm, emission 572 nm). Half-life was calculated by one-phase decay in Prism 10. Furthermore, eluting peptides were collected, lyophilized, and analyzed by MALDI-ToF-MS.

[3] = Stability of Tam-labeled peptides in Calu-3 cell culture supernatant
Protocol: as §1
HEK-293 cells were cultivated under standard conditions in Dulbecco’s modified Eagle’s medium (DMEM, Biowest)/Ham’s F12 (Biowest, 1:1, v/v) with 15% fetal bovine serum (FBS, Sigma-Aldrich). HEK-293 cells were detached with trypsin/ethylenediaminetetraacetic acid (Lonza) and seeded in a poly-D-lysine hydrobromide (Merck, 0.1 mg/mL)-coated 96-well cell culture microplate (Greiner Bio-One, 100,000 cells/well). The cells were grown under standard conditions. […] Cell differentiation was supported by culturing cells on an air–liquid interface for 10–14 days and monitored by measurement of transepithelial electrical resistance. […]

[4] = human blood plasma/DPBS (1:1); conditions: 37 °C, up to 72 h
[5] = HEK-293 supernatant (phenol red-free DMEM with 15% FBS); conditions: up to 72 h

## CCCCCCCC(=O)NC[C@H](NC(=O)[C@H](CO)NC(=O)CN)C(=O)N[C@@H](Cc1ccccc1)C(=O)N[C@@H](CC(C)C)C(=O)N[C@@H](CO)C(=O)N1CCC[C@H]1C(=O)N[C@@H](CCC(=O)O)C(=O)N[C@@H](Cc1c[nH]cn1)C(=O)N[C@@H](CCC(N)=O)C(=O)N[C@@H](CCCNC(=N)N)C(=O)N[C@H](C(=O)N[C@@H](CCC(N)=O)C(=O)N[C@@H](CCC(N)=O)C(=O)N[C@@H](CCCNC(=N)N)C(=O)N[C@@H](CCCCNC(=O)c1ccc2c(c1)C1(OC2=O)c2ccc(N(C)C)cc2Oc2cc(N(C)C)ccc21)C(=O)N[C@@H](CCC(=O)O)C(=O)N[C@@H](CO)C(=O)N[C@@H](CCCCN)C(=O)N[C@@H](CCCCN)C(=O)N1CCC[C@H]1C(=O)N1CCC[C@H]1C(=O)N[C@@H](C)C(=O)N[C@@H](CCCCN)C(=O)N[C@@H](CC(C)C)C(=O)N[C@@H](CCC(N)=O)C(=O)N1CCC[C@H]1C(=O)N[C@@H](CCCNC(=N)N)C(=O)O)C(C)C [peptide 3, [Dpr^3,K^16(Tam)]-Ghr]
[1]; human, 10 μM peptide
  half-life at 10 μM: 3430 min
[2]; human blood plasma diluted with DPBS (1:1), blood plasma half-life, human blood plasma/DPBS (1:1), 10 μM peptide, 37 °C, one-phase decay
  half-life at 10 μM: 2.1 days
[2]; human blood plasma diluted with DPBS (1:1), donor plasma 3, half-life in plasma 3, donor comparison, plasma 3, plasma/DPBS (1:1), 10 μM, 37 °C
  half-life at 10 μM: 2.39 days

## CCCCCCCC(=O)NC[C@H](NC(=O)[C@H](CO)NC(=O)CN)C(=O)N[C@@H](Cc1ccccc1)C(=O)N[C@@H](CC(C)C)C(=O)N[C@@H](CO)C(=O)N1CCC[C@H]1C(=O)N[C@@H](CCC(=O)O)C(=O)N[C@@H](Cc1c[nH]cn1)C(=O)N[C@@H](CCC(N)=O)C(=O)N[C@@H](CCCNC(=N)N)C(=O)N[C@H](C(=O)N[C@@H](CCC(N)=O)C(=O)N[C@@H](CCC(N)=O)C(=O)N[C@@H](CCCNC(=N)N)C(=O)N[C@@H](CCCCNC(=O)c1ccc2c(c1)C1(OC2=O)c2ccc(N(C)C)cc2Oc2cc(N(C)C)ccc21)C(=O)N[C@@H](CCC(=O)O)C(=O)N[C@@H](CO)C(=O)N[C@@H](CCCCN)C(=O)N[C@@H](CCCCNC(=O)CCCCCCCCCCCCCCCCC(=O)O)C(=O)N1CCC[C@H]1C(=O)N1CCC[C@H]1C(=O)N[C@@H](C)C(=O)N[C@@H](CCCCN)C(=O)N[C@@H](CC(C)C)C(=O)N[C@@H](CCC(N)=O)C(=O)N1CCC[C@H]1C(=O)N[C@@H](CCCNC(=N)N)C(=O)O)C(C)C [peptide 4, [Dpr^3,K^16(Tam),K^20(Odd)]-Ghr]
[1]; HPLC eluents
  cleavage products detected by MALDI-ToF MS, HEK-293 supernatant: no cleavage was observed
[1]; human, HEK-293 cell culture supernatant, 10 μM peptide, DMEM with 15% FBS, 72 h, read-out: degradation over 72 h in HEK-293 supernatant
  metabolised at 72 h, 10 μM: < 10%
[3]; HPLC eluents
  cleavage products detected by MALDI-ToF MS, Calu-3 supernatant: strong C- and N-terminal truncation
[2]; HPLC eluents
  cleavage products detected by MALDI-ToF MS, blood plasma: no cleavage was observed
[2]; human blood plasma
  remaining at 72 h, 10 μM: ~90%

## GS-Dpr(Oct)-FLSPEHQRVQQRK(Tam)ESKK(Odd)PPAKLQPR
[4]
  not cleaved: around 90% intact peptide after 72 h
[5]
  not cleaved: degradation of less than 10% over 72 h

## CCCCCCCCCCCC(=O)NCCCC[C@H](N)C(=O)N[C@H](C(=O)N[C@@H](CC(N)=O)C(=O)N1CCC[C@H]1C(=O)N[C@@H](CCCCNC(=O)c1ccc2c(c1)C1(OC2=O)c2ccc(N(C)C)cc2Oc2cc(N(C)C)ccc21)C(=O)N[C@@H](Cc1ccc(-c2ccccc2)cc1)C(=O)N[C@@H](CCCNC(=N)N)C(=O)N[C@@H](CC(C)C)C(=O)N[C@@H](CCCNC(=N)N)C(=O)N[C@@H](Cc1ccc(O)cc1)C(N)=O)[C@@H](C)CC [peptide 2, [K^27(Lau),K^31(Tam)]-sNPY(27–36)] (H-K(Lauroyl)INPK(X1)[Bip]RLRY-NH2; N-terminus assumed)
[1]; human, 10 μM peptide
  half-life at 10 μM: 1400 min
[3]
  stability in Calu-3 supernatant compared to HEK-293 supernatant: only slightly lower
[2]; plasma
  half-life at 10 μM: 0.133 days
  remaining at 72 h, 10 μM: 3%
